Here are results for three molecules from patent publication US11446283B2, “Methods and dosing regimens using ibudilast and a second agent for cancer therapy” (MediciNova, Inc., priority 2018, dated 2022).

The subject of series [1] is Patient-derived cell line RN1 (MGMT unmethylated GBM). In words: Efficacy in balb/c nude mice harboring intracranial patient-derived glioblastoma (RN1), Kaplan-Meier survival. As to conditions: for survival rate: at 105 days, control 0%; for median survival time: gavage daily; for mice that survived longer than the longest surviving mouse in the control group: n=8. As for the experimental part:
Patient-derived cell line RN1 (2 μL) was intra-cranially injected into balb/c nude mice.
6-8 week old balb/c nude mice were used. All procedures, except autopsies, were carried out within a laminar flow cabinet. Tumors were induced following the procedure disclosed in Wakimoto H. et al. (2012) Neuro Oncol. 14(2): 132-44. Balb/c nude mice were weighed and held in groups of four. The mice received an analgesic 2 hours prior to primary human tumor cell implantation—the mice were injected subcutaneously with 5 mg/kg Rimadyl (Carprofen). The animals were anesthetized via continuous mask inhalation of isoflurane (2.5-3%, 1 L/min oxygen for induction and 1-2.5%, 0.2 L/min oxygen for maintenance). The depth of anesthesia was assessed by toe pinch reflex (leg withdrawal) before the procedure began (cf. monitoring sheet #1).
A 2 mm drill hole was made at the stereotactically in the right caudate putamen using the coordinates 1 mm anterior, 1.5 mm lateral, and 3.0 mm below the bregma. A micro-injector unit (holding a 2 μl Hamilton syringe with a 25-gauge needle) connected to the manipulating arm of the stereotactic device was used to inject a 2 μL solution containing 200,000 primary human tumor cells dorsoventrally (DV) at −3 from the skull surface, to deposit cells into the lateral portion of the striatum (right basal ganglia). All injections were made over a period of 10 minutes to ensure optimal parenchymal compliance. The micro-injector needle was retracted and the burr hole in the skull closed using bone-wax (Johnson & Johnson) in order to prevent extracranial tumor growth. Skin was closed using a tissue adhesive (Vetbond). Mice received sterile eye drops (Systane) throughout the procedure to avoid eye dryness.
Two dosages of ibudilast were administered to the balb/c nude mice: 5 mg/kg and 20 mg/kg (both in 100 uL total volume). The dosage of ibudilast was extrapolated from multiple animal studies on rats looking at the treatment of multiple sclerosis (MS) disease and models of central neuropathic pain (Ellis et al. 2014; Reagan-shaw et al. 2008).
10 mg/kg of temozolomide (TMZ) was administered to the balb/c nude mice through intraperitoneal injection.
Five treatment groups were used as follows: • 1. Ibudilast 5 mg/kg by gavage (n=8) • 2. Ibudilast: 20 mg/kg by gavage (n=8) • 3. Combination 1: Ibudilast (5 mg/kg)+TMZ (10 mg/kg) (n=8) • 4. Combination 2: Ibudilast (20 mg/kg)+TMZ (10 mg/kg) (n=8) • 5. Control saline containing polyoxyethylene hydrogenated castor oil 60; 100 μL) (n=8)
For all of the treatment groups (except the control group), ibudilast was administered by gavage (daily) for approximately 59 days (until the last control mouse died) and TMZ was administered via intraperitoneal injection (daily) for two weeks.
At approximately 43 days after tumor implantation, mice were treated with temozolomide (10 mg/kg) and/or ibudilast (5 mg/kg or 20 mg/kg). Ibudilast was administered in a solution of saline containing polyoxyethylene hydrogenated castor oil 60 using the gavage method (100 μl total volume) (Fujimoto et al., 1999 J Neuroimmunology 95:1-2, 35-42). Temozolomide was delivered by intraperitoneal injection (I.P.) in 0.1% dimethyl sulfoxide (DMSO, […] total volume).
At this particular time, animals were carefully monitored (twice daily) as neurological decline can occur rapidly. Typical signs of neurological decline include a hunched posture with an arched back, continuous circling, walking on tip-toes, balance issues, closed eyes, hyperactivity, and seizures. Neurological decline was scored (cf. monitoring sheet #3) for each animal.
When signs of pain, distress or neurological decline were noted, animals were immediately euthanized by inhalation of a progressive overdose of carbon dioxide (cf. B.7). Animals were also immediately euthanized if they lost more than 20% of their body weight.

For series [2] the following is noted: in vivo; cited from earlier work.

Consider `Cn1nnc2c(C(N)=O)ncn2c1=O` [TMZ, temozolomide], for which, in series [1] (TMZ 10 mg/kg intraperitoneal daily for two weeks, control 100.5 days), the median survival came out at 105.5 days.

As for `CC(C)C(=O)c1c(C(C)C)nn2ccccc12` [ibudilast, 3-isobutyryl-2-isopropylpyrazolo[1,5-a]pyridine], the “effect in the mouse glioblastoma model” value in series [1] (5 and 20 mg/kg) is “positive effect”. Moreover, the survival rate worked out at 12% in series [1] (ibudilast 5 mg/kg) and 25% in series [1] (ibudilast 20 mg/kg). For the same molecule, the median survival time was 89 days in series [1] (ibudilast 5 mg/kg (low dose) monotherapy, control 100.5 days) and 97.5 days in series [1] (ibudilast 20 mg/kg (high dose) monotherapy, control 100.5 days). For the same molecule, the entries for the “mice that survived longer than the longest surviving mouse in the control group” value in series [1] (ibudilast 5 mg/kg) and in series [1] (ibudilast 20 mg/kg) were “one mouse” and “two mice”, respectively. For the same molecule, the “median survival compared with controls (significance)” value in series [1] (monotherapy at either low dose (5 mg/kg) or high dose (20 mg/kg)) is recorded as “did not significantly differ from the controls”. The CNS penetration entry in series [2] is “good CNS penetration”.

`COc1ccc(C2CNC(=O)C2)cc1OC1CCCC1` (centres unmarked) [rolipram]: the CNS penetration result in series [2] is “poor penetration”.
